Experiments:
[1] = Phase 1 crossover relative bioavailability study: plasma pharmacokinetics of midazolam, 1-hydroxymidazolam, ketamine and norketamine
Procedure: PK analysis was performed using noncompartmental methods in Phoenix WinNonlin® (Version 8.1, Certara, L.P.) in conjunction with the internet-accessible implementation of the Pharsight® Knowledgebase Server™ (PKSO; Version 4.0.4, Certara, L.P). PKSO provides protected and structured storage, audit trails, and version control for study data, analyses, and related files, supporting 21 CFR Part 11 compliance. The analysis was performed in accordance with the Statistical Analysis Plan (Version 1.0, 5 Jan. 2021).
During the PK analysis, concentrations below the limit of quantitation (BLQ) up to the time of the first quantifiable concentration were treated as zero. Embedded (values between 2 quantifiable concentrations) and terminal BLQ concentrations were treated as “missing”. Calculation of the PK characteristics were based on actual elapsed times [h] (relative to time of dose).
All PK analyses were performed on the data from the PK Analysis Population. […] The ANOVA model included factors for sequence, subject within sequence, treatment, and period.

[2] = test system: subjects undergoing cataract extraction with lens replacement (CELR); experiment: Phase 2: subject-rated worst pain during surgery by the numeric pain rating scale; assay type: in vivo, human; details: Full Analysis Set
[3] = test system: subjects undergoing cataract extraction with lens replacement (CELR); experiment: Phase 2: subjects receiving opioid concomitant medication postoperatively; assay type: in vivo, human; details: Full Analysis Set; percent of subjects
[4] = test system: subjects undergoing cataract extraction with lens replacement (CELR); experiment: Phase 2 MELT-300: subjects achieving procedural sedation (RSS level 2 or 3 without rescue); assay type: in vivo, human
Procedure: Achievement of procedural sedation was evaluated for each subject (see TABLE 20). Success for procedural sedation for this Phase 2 study was defined as achieving target sedation level (Ramsay Sedation Scale (RSS) scale level 2 or 3) at the start of surgery without the need for rescue sedation medication, and no need for intraoperative rescue sedation medication to maintain target sedation level.

[5] = test system: subjects undergoing cataract extraction with lens replacement (CELR); experiment: Phase 2: subjects completing the surgery (and without interruption); assay type: in vivo, human; details: Visit 2 (Day 1); Full Analysis Set
Procedure: The number of subjects achieving analgesia response (observed) in the full analysis set was determined. Success in analgesia response was defined as NPRS<4 at the available at the available four intraoperative timepoints and a failure otherwise (e.g., any interoperative pain rescue was assumed to be a failure. Results are provided in TABLE 25. The number of subjects completing the surgery is provided in TABLE 26, and the number of subjects completing the surgery without interruption is provided in TABLE 27. For this measure, subjects completing the surgery without interruption (other than rescue medication) due to pain or anxiety were considered successes. The number of subjects requiring rescue sedative medication and those requiring analgesic medication are provided in TABLES 28 and 29, respectively. For all TABLES 25-29, p-Values between pairs of treatments were calculated and are provided.

[6] = test system: subjects undergoing cataract extraction with lens replacement (CELR); experiment: Phase 2: treatment-emergent ocular adverse events and serious adverse events; details: for Cataract operation complication, % / Conjunctivitis bacterial, % / Corneal abrasion, % / Corneal oedema, % / Endophthalmitis, % / Eye disorders, % / Eye pain, % / Foreign body sensation in eyes, % / General disorders and administration site conditions, % / Infections and infestations, % / Injury, poisoning and procedural complications, % / Intraocular pressure increased, % / Investigations, % / Ocular hypertension, % / Pain, % / Paracentesis eye, % / Procedural pain, % / Subjects with Any Treatment-Emergent Ocular AEs, % / Vision blurred, %: Full Analysis Set
Procedure: The study eye (TABLE 32) non-study eye (TABLE 33), or either eye (TABLE 34) was assessed. TEAES were defined as events that started on or after the date of the study drug administration through the end of Visit 4 or early withdrawal. Subjects with one or more adverse event within a level of Medical Dictionary for Regulatory Activities (MedDRA) were counted only once in that level. […] TEAEs of special interest by system, organ class, and preferred term are provided in TABLE 35 for the full analysis set.

[7] = Treatment D: ketamine IV 18 mg, fasted
[8] = carry forward, MELT-300, midazolam 3 mg, ketamine 50 mg
[9] = Visit 2 (Day 1), Full Analysis Set, single sublingual tablet (MELT-300; midazolam 3 mg; ketamine 50 mg)

CNC1(c2ccccc2Cl)CCCCC1=O (stereo not drawn) [Ketamine, 2-(2-chlorophenyl)-2-(methylamino)cyclohexanone]
Ketamine AUCExtrap, mean [1, 7]: 9.64% | Ketamine Clast, mean [1, 7]: 1.99 ng/mL | Ketamine Tlast, mean [1, 7]: 23.7 h | Ketamine Vz, mean [1, 7]: 867 L | clearance ([1]; human, plasma, iv, 18 mg): 998 mL/min | Worst pain: Mean Difference versus Placebo [2]: −0.33 | Worst Pain During Surgery (NPRS), Mean [2, 8]: 3.7 | Worst Pain During Surgery (NPRS), Median [2, 8]: 4.0 | Received Postoperative Opioid on Day 2-8: No, % [3]: (100.0) % | Received Postoperative Opioid on Day 2-8: Yes, % [3]: (0.0) % | Received Postoperative Opioid on Day 2: No, % [3]: (100.0) % | Received Postoperative Opioid on Day 2: Yes, % [3]: (0.0) % | Subjects who achieved target sedation ([4]; Full analysis set, MELT-300, 3 mg midazolam alone, 50 mg ketamine alone, sublingual): 63.3% | Subjects achieving procedural sedation: No [4, 9]: 29 (36.7) n (%) | Subjects achieving procedural sedation: Yes [4, 9]: 50 (63.3) n (%) | Subjects completing the surgery: No [5]: 0 (0) n (%) | Subjects completing the surgery: Yes [5]: 79 (100.0) n (%) | Cataract operation complication, % ([6]; Either Eye): (0) % | Conjunctivitis bacterial, % ([6]; Either Eye): (1.2) % | Corneal abrasion, % ([6]; Either Eye): (0) % | Corneal oedema, % ([6]; Either Eye): (1.2) % | Endophthalmitis, % ([6]; Either Eye): (1.2) % | Eye disorders, % ([6]; Either Eye): (5.9) % | Eye pain, % ([6]; Either Eye): (3.5) % | Foreign body sensation in eyes, % ([6]; Either Eye): (0) % | General disorders and administration site conditions, % ([6]; Either Eye): (0) % | Infections and infestations, % ([6]; Either Eye): (2.4) % | Injury, poisoning and procedural complications, % ([6]; Either Eye): (0) % | Intraocular pressure increased, % ([6]; Either Eye): (1.2) % | Investigations, % ([6]; Either Eye): (1.2) % | Ocular hypertension, % ([6]; Either Eye): (1.2) % | Pain, % ([6]; Either Eye): (0) % | Paracentesis eye, % ([6]; Either Eye): (0) % | Procedural pain, % ([6]; Either Eye): (0) % | Subjects with Any Treatment-Emergent Ocular AEs, % ([6]; Either Eye): (8.2) % | Vision blurred, % ([6]; Either Eye): (0) % | Paracentesis eye, % ([6]; Non-Study Eye (as printed in Table 33)): (0) % | Conjunctivitis bacterial, % ([6]; Non-Study Eye): (1.2) % | Eye disorders, % ([6]; Non-Study Eye): (0) % | Eye pain, % ([6]; Non-Study Eye): (0) % | Infections and infestations, % ([6]; Non-Study Eye): (1.2) % | Subjects with Any Treatment-Emergent Ocular AEs, % ([6]; Non-Study Eye): (1.2) % | Vision blurred, % ([6]; Non-Study Eye): (0) % | Cataract operation complication, % ([6]; Study Eye): (0) % | Corneal abrasion, % ([6]; Study Eye): (0) % | Corneal oedema, % ([6]; Study Eye): (1.2) % | Endophthalmitis, % ([6]; Study Eye): (1.2) % | Eye disorders, % ([6]; Study Eye): (5.9) % | Eye pain, % ([6]; Study Eye): (3.5) % | Foreign body sensation in eyes, % ([6]; Study Eye): (0) % | General disorders and administration site conditions, % ([6]; Study Eye): (0) % | Infections and infestations, % ([6]; Study Eye): (1.2) % | Injury, poisoning and procedural complications, % ([6]; Study Eye): (0) % | Intraocular pressure increased, % ([6]; Study Eye): (1.2) % | Investigations, % ([6]; Study Eye): (1.2) % | Ocular hypertension, % ([6]; Study Eye): (1.2) % | Pain, % ([6]; Study Eye): (0) % | Procedural pain, % ([6]; Study Eye): (0) % | Subjects with Any Treatment-Emergent Ocular AEs, % ([6]; Study Eye): (7.1) % | Subjects who experienced a treatment-emergent ocular adverse event, study eye ([6]; overall, MELT-300, midazolam alone, ketamine alone): 7.1%
